The text below walks through data of paper PMC9908843 (Angewandte Chemie (International Ed. in English), 2023).

Each structure is given as a SMILES string.

Test [1] deals with T1, TmGH1 (Thermotoga maritima, UniProt Q08638).
T1 sequence (Q08638 1-446): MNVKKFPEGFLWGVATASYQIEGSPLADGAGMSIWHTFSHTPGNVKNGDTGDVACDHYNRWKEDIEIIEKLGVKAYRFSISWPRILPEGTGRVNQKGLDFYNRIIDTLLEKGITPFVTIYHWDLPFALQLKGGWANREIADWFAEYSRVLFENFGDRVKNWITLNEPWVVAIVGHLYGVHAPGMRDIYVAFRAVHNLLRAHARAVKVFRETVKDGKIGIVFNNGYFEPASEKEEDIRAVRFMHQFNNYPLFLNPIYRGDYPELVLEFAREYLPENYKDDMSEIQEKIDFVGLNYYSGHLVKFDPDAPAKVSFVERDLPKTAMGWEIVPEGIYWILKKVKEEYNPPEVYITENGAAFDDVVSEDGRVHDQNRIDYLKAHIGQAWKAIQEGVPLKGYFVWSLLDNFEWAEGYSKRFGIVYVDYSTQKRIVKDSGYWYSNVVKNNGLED
The experiment in a line: TmGH1 inhibition. It counts as biochemical.

A further test concerns the target T2, SsGH1 (Saccharolobus solfataricus, UniProt P22498).
T2 sequence (P22498 1-489): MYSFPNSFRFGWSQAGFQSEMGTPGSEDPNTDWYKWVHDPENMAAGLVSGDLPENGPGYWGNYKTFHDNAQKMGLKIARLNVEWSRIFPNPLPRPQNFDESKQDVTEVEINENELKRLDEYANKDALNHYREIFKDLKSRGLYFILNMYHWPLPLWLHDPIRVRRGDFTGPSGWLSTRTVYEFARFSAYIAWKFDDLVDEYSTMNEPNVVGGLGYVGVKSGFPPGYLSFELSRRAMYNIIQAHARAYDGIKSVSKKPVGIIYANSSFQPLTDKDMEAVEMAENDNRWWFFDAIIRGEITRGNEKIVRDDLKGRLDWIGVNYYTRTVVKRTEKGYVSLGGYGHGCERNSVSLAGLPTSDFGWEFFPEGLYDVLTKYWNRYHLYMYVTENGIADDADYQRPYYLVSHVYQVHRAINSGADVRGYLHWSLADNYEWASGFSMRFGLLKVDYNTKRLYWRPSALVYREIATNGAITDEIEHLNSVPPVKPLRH
The experiment in a line: SsGH1 inhibition. Format: biochemical, Sulfolobus solfataricus.

A further test deals with TmGH1, SsGH1 and BtMan2A. It counts as biochemical. Conditions: 3 vs 4 (TmGH1, SsGH1), 7 vs 8 (BtMan2A).
Another test deals with T3, BtMan2A (Bacteroides thetaiotaomicron, UniProt Q8AAK6).
T3 sequence (Q8AAK6 26-864): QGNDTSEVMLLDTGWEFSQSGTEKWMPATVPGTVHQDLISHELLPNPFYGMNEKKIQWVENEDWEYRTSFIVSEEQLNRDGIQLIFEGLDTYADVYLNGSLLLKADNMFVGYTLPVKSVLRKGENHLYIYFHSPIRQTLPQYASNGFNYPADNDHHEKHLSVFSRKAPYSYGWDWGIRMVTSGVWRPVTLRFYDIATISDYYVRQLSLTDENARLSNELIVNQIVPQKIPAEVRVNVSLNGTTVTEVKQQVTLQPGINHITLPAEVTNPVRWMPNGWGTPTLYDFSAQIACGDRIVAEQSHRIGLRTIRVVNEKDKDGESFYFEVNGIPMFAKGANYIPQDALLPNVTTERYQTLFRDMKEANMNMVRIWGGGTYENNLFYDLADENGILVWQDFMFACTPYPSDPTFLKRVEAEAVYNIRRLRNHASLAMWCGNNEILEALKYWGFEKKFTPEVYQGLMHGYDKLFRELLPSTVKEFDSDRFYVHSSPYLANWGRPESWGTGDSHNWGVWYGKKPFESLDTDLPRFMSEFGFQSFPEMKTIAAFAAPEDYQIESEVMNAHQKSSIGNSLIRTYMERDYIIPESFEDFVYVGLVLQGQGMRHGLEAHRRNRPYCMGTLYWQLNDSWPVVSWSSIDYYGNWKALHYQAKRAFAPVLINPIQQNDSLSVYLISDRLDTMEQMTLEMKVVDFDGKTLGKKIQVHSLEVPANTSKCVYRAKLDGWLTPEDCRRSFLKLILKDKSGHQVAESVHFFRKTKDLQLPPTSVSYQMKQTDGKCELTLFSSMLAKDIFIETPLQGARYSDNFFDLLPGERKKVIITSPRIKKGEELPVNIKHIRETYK
Kind of test: BtMan2A inhibition. It counts as biochemical. The conditions noted are these: ratio of Ki for BtMan2A.

The target of test [2] is T1, TmGH1. The conditions noted are these: cited from earlier work.

A word on the Ki: it is the dissociation constant of the complex between target and ligand, obtained from inhibition or displacement.

In the case of `OC[C@H]1NC[C@H](O)[C@@H](O)[C@@H]1O` [Compound 2, 1‐deoxynojirimycin, reference compound], the Ki turned out to be 5.4 ± 0.5 µM at TmGH1 [1] and 3.1 ± 0.2 µM on SsGH1.
With `C[C@H](O)[C@H]1NC[C@@H](O)[C@@H](O)[C@@H]1O.Cl` [Compound 7], the “Fold better inhibitor than the isosteric compound with the gt conformation” value with TmGH1, SsGH1 and BtMan2A was “between six‐ and ten‐fold”. Moreover, the “Fold greater potency over 1-deoxymannojirimycin 6” value at BtMan2A is listed as 27 fold.
In the case of `C[C@@H](O)[C@H]1NC[C@H](O)[C@@H](O)[C@@H]1O` [Compound 4], the Ki on TmGH1 [1] stood at 135 ± 11 µM; at SsGH1, 105 ± 10 µM.
As for `C[C@H](O)[C@H]1NC[C@H](O)[C@@H](O)[C@@H]1O.Cl` [Compound 3], the results for the Ki at TmGH1 [1] and at SsGH1 were 16 ± 2 µM and 17 ± 1 µM, respectively. In addition, the “Fold better inhibitor than the isosteric compound with the gt conformation” value in the test with TmGH1, SsGH1 and BtMan2A was “between six‐ and ten‐fold”.
With `O[C@H]1[C@H](O)[C@@H](O)CN2CC[C@H](O)[C@H]12` [Compound 1, castanospermine], the “Fold better inhibitor than 1-deoxynojirimycin 2” value at TmGH1 [2] is given as “four‐fold”.
